Laboratory results as given in patent US20080254487A1, “Connective Tissue Growth Factor Signaling” (FIBROGEN, INC., priority 2004, published 2008).

Assays:
[1] = target: T1, recombinant human CTGF (rhCTGF) (Homo sapiens, UniProt P29279); experiment: Cell adhesion assay (CTGF-mediated cell adhesion); assay type: cell-based; conditions: HFF cells; increasing concentrations added to the adhesion reaction; FIGS. 3C, 6A, 7A
T1 construct: in the presence of no CTGF, full-length CTGF, the N-terminal half of CTGF (NH2 fragment); made in house; host or cells: Hi5 insect cells infected with baculovirus (pFASTBAC1; virus generated in Sf9)
T1 sequence (P29279 27-349): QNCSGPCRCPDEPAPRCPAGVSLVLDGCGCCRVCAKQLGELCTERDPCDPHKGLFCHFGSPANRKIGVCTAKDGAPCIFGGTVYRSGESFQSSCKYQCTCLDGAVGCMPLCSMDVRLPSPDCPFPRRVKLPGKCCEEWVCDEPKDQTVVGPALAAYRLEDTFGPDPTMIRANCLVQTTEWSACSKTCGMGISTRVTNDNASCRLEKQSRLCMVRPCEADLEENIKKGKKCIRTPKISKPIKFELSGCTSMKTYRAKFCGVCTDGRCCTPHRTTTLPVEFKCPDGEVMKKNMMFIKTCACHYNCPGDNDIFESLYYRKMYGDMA
Experimental: Methods for measuring cell adhesion mediated by CTGF are generally known to those skilled in the art. (See, e.g., Babic et al. (1999) Mol Cell Biol 19:2958-296; Ball et al. (2003) J Endocrinol 176:R1-7.) In some experiments, wells of a MAXISORP plate (Nunc Nalgene) were treated with 10 μg/ml recombinant human CTGF (rhCTGF) to directly adsorb CTGF to the well. Alternatively, wells were coated with a human monoclonal antibody specific for human CTGF, and then were blocked with bovine serum albumin to prevent non-specific binding. 2 μg/1 ml rhCTGF or fragments thereof, or a vehicle control was added to each well. Plates were then washed 3 times with PBS, cells were added at a seed density of approximately 8×10^3 cells/well, and plates were incubated for 45 minutes at 37° C. Wells were then washed twice, and the number of cells retained in each well was measured using a CYQUANT cell proliferation assay kit (Molecular Probes, Inc., Eugene Oreg.). Alternatively, attached cells were lysed in 2% Triton and lactate dehydrogenase (LDH) activity was measured using a cytotoxicity detection (LDH) kit (Roche Diagnostics Corp., Chicago, Ill.). LDH levels were compared against a standard curve generated using known numbers of cells, and results of experiment were expressed as numbers of attached cells per well.
CTGF has been described as a heparin-binding growth factor. As cells may carry a variety of proteoglycan moieties on their surface, e.g., heparan sulfate, chondroitin sulfate, etc. (see FIG. 3A), the following experiment was conducted to determine the specificity of CTGF for such moieties. The cell adhesion and cell binding assays were conducted as described in Examples 3.1 and 3.2, respectively, except prior to seeding cells were treated for 1 hour at 37° C. with either vehicle, 4 units/ml heparinase I, or 2 units/ml chondroitinase ABC.
To further examine the requirement for heparan sulfate proteoglycans in CTGF-mediated cell adhesion, adhesion was measured in the presence of increasing amounts of heparin. […]

CTGF [2] = target: T2, CTGF (Homo sapiens, UniProt P29279); experiment: CTGF displacement assay (endogenous CTGF displaced from cells, sandwich ELISA); assay type: cell-based; set-up: measured displacement of CTGF endogenously produced by cells; endogenous in cells; host or cells: HLF and MG63 cells (constitutive or TGF-β2-induced expression); conditions: HLF or MG63 cells; titrated amounts of sulfated polysaccharides; FIGS. 6B, 7B
T2 sequence (P29279 27-349): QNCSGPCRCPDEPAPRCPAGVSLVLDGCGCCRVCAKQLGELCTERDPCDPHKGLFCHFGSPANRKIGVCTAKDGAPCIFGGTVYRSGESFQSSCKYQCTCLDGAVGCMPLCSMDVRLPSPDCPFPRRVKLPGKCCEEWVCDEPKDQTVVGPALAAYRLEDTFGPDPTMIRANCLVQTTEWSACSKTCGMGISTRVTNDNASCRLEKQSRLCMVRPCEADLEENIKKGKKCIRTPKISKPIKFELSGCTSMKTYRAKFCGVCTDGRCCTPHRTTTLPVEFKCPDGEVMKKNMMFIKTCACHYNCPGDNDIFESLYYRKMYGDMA
Experimental: Alternatively, cell binding was measured using a CTGF displacement assay. The displacement assay used in the present examples measured displacement of CTGF endogenously produced by cells. HLF and MG63 cells were separately used in the displacement assay as follows. In all experiments, cells were plated in 96-well tissue culture plates at a seed density of 2.5×10^4 cells/well. Cells were incubated for approximately 24 hours at 37° C., and then medium was replaced with a serum-free medium containing titrated amounts of sulfated polysaccharides (glycosaminoglycans, GAGs). In some experiments, constitutive CTGF expression accounted for the displaced CTGF, whereas in other experiments additional levels of CTGF were induced by addition of TGF-β2 in culture media 30 minutes prior to change of media and addition of GAGs. MG63 cells were incubated for either 3 or 6 hrs, and HLF cells were incubated for 20 hrs, at 37° C., and then conditioned media was assayed for N-fragment and full-length CTGF using a sandwich ELISA assay. (See International Publication No. WO 03/024308.)
To determine size requirements for modulation of CTGF-mediated cell adhesion and cell binding, heparin moieties containing differing saccharide subunit number were examined. Polysaccharide lengths tested ranged from 10 to approximately 50 saccharides, and experiments were carried out as described in examples 3.1 and 3.3. […]

CTGF [3] = target: T2, CTGF; experiment: CTGF binding assay (binding of CTGF to cells, FACS); assay type: cell-based; conditions: increasing concentrations of heparin or modified heparin, FIG. 4
Experimental: Methods for measuring binding of CTGF to cells are generally known to those skilled in the art. (See, e.g., Nishida (1998) Biochem Biophys Res Commun 247:905-909; Segarini et al. (2001) J Biol Chem 276:40659-40667.) In one method used herein, cells were suspended in media containing CTGF under conditions suitable for binding of CTGF to cellular targets, e.g., incubation at 4° C. Cells may optionally be treated prior to or concurrently with CTGF exposure; for example, cells may be treated with enzymes that alter cell surface moieties, molecules that compete competitively or non-competitively with CTGF for binding to cells, etc. Following incubation, cells were washed and then incubated with fluorescently-labeled anti-CTGF antibody. The level of CTGF binding was then measured using a FACS apparatus.
To determine the specificity of sulfation and charge distribution for CTGF-mediated cell adhesion and cell binding, experiments as described in Examples 3.1, 3.2, and 3.3, were performed with the following modification. Combination of HFF cells with CTGF was accompanied by addition of increasing concentrations of heparin that was modified to contain differing amounts of sulfation and/or acetylation.

CTGF [4] = target: T2, CTGF; experiment: Co-immunoprecipitation assay, interaction with CTGF; assay type: binding; conditions: FIG. 8A, FIG. 9
Experimental: (§1) Co-immunoprecipitation is a purification procedure used to determine if two different molecules, e.g., proteins, directly interact. Basically, an antibody specific to a protein of interest is added to a cell lysis under conditions suitable for antibody binding to the protein. The antibody-protein complex is then collected, e.g., using protein-G sepharose, which binds most antibodies. Any molecules that are bound to the precipitated protein will also be collected. Identification of proteins can be determined by, e.g., western blot or by direct sequencing of the purified protein(s). Several commercial kits, e.g., the PROFOUND co-immunoprecipitation kit from Pierce Biotechnology, Inc. (Rockford Ill.) are also available.
(§2) In the present examples, co-immunoprecipitations were performed as follows. The surface of intact cells was iodinated with ^125I prior to lysing cells and fractionating on a CTGF affinity column. Alternatively, CTGF and labeled cells were incubated for a period sufficient for CTGF binding to cells, and then cells were lysed and immunoprecipitations were performed using anti-CTGF specific antibodies. Antibody complexes were collected from the lysate using protein-G sepharose, and pelleted by centrifugation. Proteins eluted from affinity columns or collected by immunoprecipitation were analyzed by fractionation on SDS-PAGE and visualized by autoradiography. […]

CTGF and betaglycan = target: T3, CTGF and betaglycan (Homo sapiens, UniProt P29279); experiment: Co-immunoprecipitation assay, binding between CTGF and betaglycan; conditions: soluble betaglycan, bFGF and CTGF mixed; dose-sensitive; FIG. 9
T3 sequence (P29279 27-349): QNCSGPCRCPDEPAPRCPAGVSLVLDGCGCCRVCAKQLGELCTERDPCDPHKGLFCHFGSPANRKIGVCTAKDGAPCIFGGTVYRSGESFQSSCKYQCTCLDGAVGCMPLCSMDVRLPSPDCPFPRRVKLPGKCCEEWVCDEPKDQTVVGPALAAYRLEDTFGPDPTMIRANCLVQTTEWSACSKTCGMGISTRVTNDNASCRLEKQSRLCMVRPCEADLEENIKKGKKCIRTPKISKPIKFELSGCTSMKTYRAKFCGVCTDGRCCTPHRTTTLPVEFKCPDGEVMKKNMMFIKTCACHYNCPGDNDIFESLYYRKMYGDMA
Experimental: as §1, §2

Molecule | CTGF-mediated (CTGF-dependent) cell adhesion, effect of added polysaccharide [1] | binding of CTGF to cells (displacement assay) (CTGF [2]) | binding of CTGF to HFF, inhibition (CTGF [3]) | interaction with CTGF (co-immunoprecipitation with anti-CTGF antibodies) (CTGF [4]) | binding between CTGF and betaglycan in the presence of the factor (CTGF and betaglycan)
dermatan sulfate [naturally sulfated dermatan] | no modulation | no modulation |  |  | 
chondroitin sulfate [naturally sulfated chondroitin] | no modulation | no modulation |  |  | 
heparin | inhibited |  | substantially inhibit |  | 
bFGF: basic fibroblast growth factor |  |  |  | clear interaction | adversely influenced
sBetaglycan: soluble betaglycan (TGF-β type III receptor), a heparan sulfate proteoglycan (protein, UniProt Q03167 21-787, looked up, extracellular domain, soluble betaglycan (TGF-β type III receptor), a heparan sulfate proteoglycan) extracellular domain: GPEPGALCELSPVSASHPVQALMESFTVLSGCASRGTTGLPQEVHVLNLRTAGQGPGQLQREVTLHLNPISSVHIHHKSVVFLLNSPHPLVWHLKTERLATGVSRLFLVSEGSVVQFSSANFSLTAETEERNFPHGNEHLLNWARKEYGAVTSFTELKIARNIYIKVGEDQVFPPKCNIGKNFLSLNYLAEYLQPKAAEGCVMSSQPQNEEVHIIELITPNSNPYSAFQVDITIDIRPSQEDLEVVKNLILILKCKKSVNWVIKSFDVKGSLKIIAPNSIGFGKESERSMTMTKSIRDDIPSTQGNLVKWALDNGYSPITSYTMAPVANRFHLRLENNAEEMGDEEVHTIPPELRILLDPGALPALQNPPIRGGEGQNGGLPFPFPDISRRVWNEEGEDGLPRPKDPVIPSIQLFPGLREPEEVQGSVDIALSVKCDNEKMIVAVEKDSFQASGYSGMDVTLLDPTCKAKMNGTHFVLESPLNGCGTRPRWSALDGVVYYNSIVIQVPALGDSSGWPDGYEDLESGDNGFPGDMDEGDASLFTRPEIVVFNCSLQQVRNPSSFQEQPHGNITFNMELYNTDLFLVPSQGVFSVPENGHVYVEVSVTKAEQELGFAIQTCFISPYSNPDRMSHYTIIENICPKDESVKFYSPKRVHFPIPQADMDKKRFSFVFKPVFNTSLLFLQCELTLCTKMEKHPQKLPKCVPPDEACTSLDASIIWAMMQNKKTFTKPLAVIHHEAESKEKGPSMKEPNPISPPIFHGLDTLTV |  |  |  | dose-sensitive interaction | 
